The results in this text go back to US8420820B2, “Pyrrolopyridinylpyrimidin-2-ylamine derivatives” (Merck Patent GmbH, priority 2008, dated 2013).

In general, IC50 refers to the concentration at which inhibition is half-maximal.

The structures appear in SMILES notation.

In assay [1] the target is T1, PDK1 (Homo sapiens, UniProt O15530).
T1 construct: His6 (N)
Description: Test for the inhibition of PDK1 (flashplate, 33P-ATP). The assay is classed as biochemical. The conditions noted are these: His6-PDK1 3.4 nM, 4 μM ATP, 30° C., 60 min. The protocol:
The experimental batches are carried out in a flashplate system with 384 wells/microtitration plate.
In each case, the PDK1 sample His6-PDK1(SEQ ID NO: 2)(1-50)(3.4 nM), the PDK1 substrate biotin-bA-bA-[…] (SEQ ID NO: 3) (400 nM), 4 μM ATP (with 0.2 μCi of ^33P-ATP/well) and the test substance in 50 μl of conventional experimental solution per well are incubated at 30° C. for 60 min. The test substances are employed in corresponding concentrations (if desired in a dilution series). The control is carried out without test substance. The reaction is stopped using standard methods and washed. The activity of the kinase is measured via the incorporated radioactivity in top count. In order to determine the non-specific kinase reaction (blank value), the experimental batches are carried out in the presence of 100 nM staurosporin.
The radioactivity (decompositions per minute) of the blank value (no use of test substance in the presence of staurosporin) is subtracted from all other radioactivity values. The controls (kinase activity without test substance) are set equal to 100 percent and all other radioactivity values (after subtracting the blank value) are expressed set in relation thereto (for example in % of the control).
IC50 values (50% inhibition) are determined with the aid of statistics programmes, such as, for example, RS1.

Assay [2] concerns PDK1 kinase activity in PC3 cells (phospho-T308-PKB). Put plainly: Cellular testing of PDK1 kinase inhibitors in PC3 cells (Luminex, phospho-T308-PKB). The conditions noted are these: Homo sapiens, PC-3, 0.5 h, 30 min with test substance, serum-free, phospho-T308-PKB by Luminex, read-out: IC50 [PC3 P-PKB Thr308]. It is filed as cell-based. The protocol:
Method for the Cellular Testing of PDK1 Kinase Inhibitors in PC3 Cells.
The cellular assay for the determination of the PDK1 kinase activity is carried out as a Luminex assay in the 96-well format. PC3 cells are sown at 20,000 cells per well in 100 μl of medium (45% of […]/45% of Ham's F12/10% of FCS) and incubated on the following day for 30 min with a serial dilution of the test substance (7 concentrations) under serum-free conditions. The cells are subsequently lysed using 90 μl of lysis buffer (20 mM tris/HCl pH 8.0, 150 mM NaCl, 1% of NP40, 10% of glycerol, 1% of phosphatase inhibitor I, 1% of phosphatase inhibitor II, 0.1% of protease inhibitor cocktail III, 0.01% of benzonase) per well, and the lysates are separated off from insoluble cell constituents by means of centrifugation through a 96-well filter plate (0.65 μm). The lysates are incubated overnight at 4° C. with shaking with Luminex beads to which an anti-total PKB antibody is coupled. The detection is carried out on the following day by addition of a phospho-T308-PKB antibody and a species-specific […] secondary antibody. The detection of phospho-T308-PKB is carried out by measurement in a Luminex100 instrument by determination of 100 events per cavity in a measurement time of 60 sec. As pharmacological blank, the signals obtained from cells which have been treated with 10 μM staurosporin are subtracted from all other batches. The control value used for maximum phosphorylation of PKB on T308 are the signals from cells which have only been treated with the solvent (0.3% of DMSO). The values of the batches treated with test substance are calculated therefrom as percentage of control, and IC50 values are determined by means of RS1.

T1 sequence (O15530 51-556): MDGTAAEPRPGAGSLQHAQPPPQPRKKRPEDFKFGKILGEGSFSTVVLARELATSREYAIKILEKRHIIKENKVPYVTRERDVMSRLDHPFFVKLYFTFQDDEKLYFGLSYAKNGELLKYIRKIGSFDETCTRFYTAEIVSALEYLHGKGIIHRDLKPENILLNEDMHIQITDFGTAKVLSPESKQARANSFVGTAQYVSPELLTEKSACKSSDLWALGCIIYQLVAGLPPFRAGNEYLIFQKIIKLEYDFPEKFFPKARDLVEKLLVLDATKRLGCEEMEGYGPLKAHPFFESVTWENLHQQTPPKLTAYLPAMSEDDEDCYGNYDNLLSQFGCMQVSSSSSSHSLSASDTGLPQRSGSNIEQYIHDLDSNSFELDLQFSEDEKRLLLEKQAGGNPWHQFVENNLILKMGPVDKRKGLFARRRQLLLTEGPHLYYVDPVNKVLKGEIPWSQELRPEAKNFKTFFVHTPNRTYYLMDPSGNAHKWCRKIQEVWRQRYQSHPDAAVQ

Consider `CCc1cc(-c2c[nH]c3ncc(-c4cnn(CC(=O)N5CCOCC5)c4)cc23)nc(N)n1` [Compound A32, 2-{4-[3-(2-Amino-6-ethylpyrimidin-4-yl)-1H-pyrrolo[2,3-b]pyridin-5-yl]pyrazol-1-yl}-1-morpholin-4-ylethanone], for which the IC50 in assay [1] lay within 0.01 to 1 µM; in assay [2], 10 to 20 µM.

With `CCc1cc(-c2c[nH]c3ncc(-c4cnn(CCO)c4)cc23)nc(N)n1` [Compound A33, 2-{4-[3-(2-Amino-6-ethylpyrimidin-4-yl)-1H-pyrrolo[2,3-b]pyridin-5-yl]pyrazol-1-yl}ethanol], the IC50 lay in the range of 0.01 to 1 µM in assay [1] and 10 to 20 µM in assay [2].

Take `CCc1cc(-c2c[nH]c3ncc(-c4cnn(CC(=O)N(C)C)c4)cc23)nc(N)n1` [Compound A34, 2-{4-[3-(2-Amino-6-ethylpyrimidin-4-yl)-1H-pyrrolo[2,3-b]pyridin-5-yl]pyrazol-1-yl}-N,N-dimethylacetamide]: the IC50 in assay [1] is 0.01 to 1 µM; in assay [2], 10 to 20 µM.

For the compound `CCCC(O)c1cc(-c2c[nH]c3ncc(-c4cnn(C(C)C)c4)cc23)nc(N)n1` (stereo not shown) [Compound A35, 1-{2-Amino-6-[5-(1-isopropyl-1H-pyrazol-4-yl)-1H-pyrrolo[2,3-b]pyridin-3-yl]-pyrimidin-4-yl}butan-1-ol], the IC50 in assay [1] was in the range of 0.01 to 1 µM; in assay [2], 1 to 10 µM.

As for `CC(O)Cc1cc(-c2c[nH]c3ncc(-c4cnn(C(C)C)c4)cc23)nc(N)n1` (stereo not shown) [Compound A36, 1-{2-Amino-6-[5-(1-isopropyl-1H-pyrazol-4-yl)-1H-pyrrolo[2,3-b]pyridin-3-yl]-pyrimidin-4-yl}propan-2-ol], the IC50 in assay [1] was 0.01 to 1 µM; in assay [2] it was 10 to 20 µM.

On to `CCc1cc(-c2c[nH]c3ncc(-c4ccc(Cl)s4)cc23)nc(N)n1` [Compound A37, 4-[5-(5-Chlorothiophen-2-yl)-1H-pyrrolo[2,3-b]pyridin-3-yl]-6-ethylpyrimidin-2-ylamine], for which the 50% inhibitory concentration (IC50) in assay [1] is 1 to 10 µM; in assay [2], 10 to 20 µM.

For the compound `CC(C)n1cc(-c2cnc3[nH]cc(-c4cc(CCCO)nc(N)n4)c3c2)cn1` [Compound A38, 3-{2-Amino-6-[5-(1-isopropyl-1H-pyrazol-4-yl)-1H-pyrrolo[2,3-b]pyridin-3-yl]-pyrimidin-4-yl}propan-1-ol], the IC50 in assay [1] lay within 0.01 to 1 µM; in assay [2] it was 10 to 20 µM.

Regarding `CN(C)CCn1cc(-c2cnc3[nH]cc(-c4cc(CCCCO)nc(N)n4)c3c2)cn1` [Compound A39, 4-(2-Amino-6-{5-[1-(2-dimethylaminoethyl)-1H-pyrazol-4-yl]-1H-pyrrolo-[2,3-b]pyridin-3-yl}pyrimidin-4-yl)butan-1-ol], the values for the IC50 in assay [1] and in assay [2] were 0.01 to 1 µM and 10 to 20 µM, respectively.

`CC(C)n1cc(-c2cnc3[nH]cc(-c4cc(CCCCO)nc(N)n4)c3c2)cn1` [Compound A40, 4-{2-Amino-6-[5-(1-isopropyl-1H-pyrazol-4-yl)-1H-pyrrolo[2,3-b]pyridin-3-yl]-pyrimidin-4-yl}butan-1-ol]: the results for the concentration for half-maximal inhibition (IC50) in assay [1] and in assay [2] were 0.01 to 1 µM and 1 to 10 µM, respectively.

`CN(C)CCn1cc(-c2cnc3[nH]cc(-c4cc(CCN5CCN(C)CC5)nc(N)n4)c3c2)cn1` [Compound A41, 4-{5-[1-(2-Dimethylaminoethyl)-1H-pyrazol-4-yl]-1H-pyrrolo[2,3-b]pyridin-3-yl}-6-[2-(4-methylpiperazin-1-yl)ethyl]pyrimidin-2-ylamine]: the IC50 in assay [1] lay in the range of 0.01 to 1 µM; in assay [2], 10 to 20 µM.

As to `CCc1cc(-c2c[nH]c3ncc(-c4ncc(-c5cccc(N)c5)o4)cc23)nc(N)n1` [Compound A42, 4-{5-[5-(3-Aminophenyl)oxazol-2-yl]-1H-pyrrolo[2,3-b]pyridin-3-yl}-6-ethylpyrimidin-2-ylamine], the IC50 lay in the range of 1 to 10 µM in assay [1] and 10 to 20 µM in assay [2].

`CC(C)n1cc(-c2cnc3[nH]cc(-c4cc(CCN5CCN(C)CC5)nc(N)n4)c3c2)cn1` [Compound A43, 4-[5-(1-Isopropyl-1H-pyrazol-4-yl)-1H-pyrrolo[2,3-b]pyridin-3-yl]-6-[2-(4-methylpiperazin-1-yl)ethyl]pyrimidin-2-ylamine]: the 50% inhibitory concentration (IC50) in assay [1] lay in the range of 0.01 to 1 µM; in assay [2], 10 to 20 µM.

`CCc1cc(-c2c[nH]c3ncc(-c4cnn(C5CCN(S(C)(=O)=O)CC5)c4)cc23)nc(N)n1` [Compound A44, 4-Ethyl-6-{5-[1-(1-methanesulfonylpiperidin-4-yl)-1H-pyrazol-4-yl]-1H-pyrrolo[2,3-b]pyridin-3-yl}pyrimidin-2-ylamine]: the IC50 in assay [1] lay in the range of 0.01 to 1 µM; in assay [2], 1 to 10 µM.

For the compound `CCc1cc(-c2c[nH]c3ncc(-c4cnn(C5CCN(C(C)=O)CC5)c4)cc23)nc(N)n1` [Compound A46, 1-(4-{4-[3-(2-Amino-6-ethylpyrimidin-4-yl)-1H-pyrrolo[2,3-b]pyridin-5-yl]-pyrazol-1-yl}piperidin-1-yl)ethanone], the figures for the IC50 in assay [1] and in assay [2] were 0.01 to 1 µM and 10 to 20 µM, respectively.

In the case of `CCCC(O)c1cc(-c2c[nH]c3ncccc23)nc(N)n1` (stereo not shown) [Compound A48, 1-[2-Amino-6-(1H-pyrrolo[2,3-b]pyridin-3-yl)pyrimidin-4-yl]butan-1-ol], the IC50 in assay [1] fell in the range of 1 to 10 µM; in assay [2] it was 10 to 20 µM.

On to `Nc1nc(CCN2CCOCC2)cc(-c2c[nH]c3ncccc23)n1` [Compound A49, 4-(2-Morpholin-4-ylethyl)-6-(1H-pyrrolo[2,3-b]pyridin-3-yl)pyrimidin-2-ylamine], for which the IC50 in assay [1] was 1 to 10 µM; in assay [2], 10 to 20 µM.

On to `CN1CCN(CCc2cc(-c3c[nH]c4ncccc34)nc(N)n2)CC1` [Compound A50, 4-[2-(4-Methylpiperazin-1-yl)ethyl]-6-(1H-pyrrolo[2,3-b]pyridin-3-yl)pyrimidin-2-ylamine], for which the figures for the IC50 in assay [1] and in assay [2] were 1 to 10 µM and 10 to 20 µM, respectively.

Consider `CCc1cc(-c2c[nH]c3ncc(-c4cnn(CC(=O)NC)c4)cc23)nc(N)n1` [Compound A51, 2-{4-[3-(2-Amino-6-ethylpyrimidin-4-yl)-1H-pyrrolo[2,3-b]pyridin-5-yl]pyrazol-1-yl}-N-methylacetamide], for which the IC50 in assay [1] fell in the range of 0.01 to 1 µM; in assay [2], 10 to 20 µM.

Turning to `CCc1cc(-c2c[nH]c3ncc(-c4cnn(CC(=O)NC5CC5)c4)cc23)nc(N)n1` [Compound A52, 2-{4-[3-(2-Amino-6-ethylpyrimidin-4-yl)-1H-pyrrolo[2,3-b]pyridin-5-yl]pyrazol-1-yl}-N-cyclopropylacetamide], the half-maximal inhibitory concentration (IC50) in assay [1] was in the range of 0.01 to 1 µM; in assay [2] it was 10 to 20 µM.

On to `CC(C)n1cc(-c2cnc3[nH]cc(-c4cc(C5(O)CCCCC5)nc(N)n4)c3c2)cn1` [Compound A53, 1-{2-Amino-6-[5-(1-isopropyl-1H-pyrazol-4-yl)-1H-pyrrolo[2,3-b]pyridin-3-yl]-pyrimidin-4-yl}cyclohexanol], for which the half-inhibitory concentration (IC50) in assay [1] is 0.01 to 1 µM; in assay [2], 10 to 20 µM.

For `CC(C)n1cc(-c2cnc3[nH]cc(-c4cc(C5(O)CCCC5)nc(N)n4)c3c2)cn1` [Compound A54, 1-{2-Amino-6-[5-(1-isopropyl-1H-pyrazol-4-yl)-1H-pyrrolo[2,3-b]pyridin-3-yl]-pyrimidin-4-yl}cyclopentanol], the IC50 in assay [1] was 0.01 to 1 µM; in assay [2], 10 to 20 µM.

Turning to `CCCCc1cc(-c2c[nH]c3ncc(-c4cnn(CC(=O)N5CCCCC5)c4)cc23)nc(N)n1` [Compound A58, 2-{4-[3-(2-amino-6-butylpyrimidin-4-yl)-1H-pyrrolo[2,3-b]pyridin-5-yl]-pyrazol-1-yl}-1-piperidin-1-ylethanone], the IC50 was 0.01 to 1 µM in assay [1] and 1 to 10 µM in assay [2].

Regarding `CCc1cc(-c2c[nH]c3ncc(-c4ccc(CN)cc4)cc23)nc(N)n1` [Compound A81, 4-[5-(4-Aminomethylphenyl)-1H-pyrrolo[2,3-b]pyridin-3-yl]-6-ethylpyrimidin-2-ylamine], the results for the IC50 in assay [1] and in assay [2] were 0.01 to 1 µM and 1 to 10 µM, respectively.
